# Legend:
# [1] = biological target: T1, GAL4-hPPARγ (Homo sapiens, UniProt P37231); experiment: GAL4-hPPARγ-UAS-luciferase reporter assay in transiently transfected HEK293 cells; format: cell-based; details: for PPARγ agonist profile compared to rosiglitazone control / EC50: dose-response, HEK293 cells; for EC50: read-out: EC50 for PPARγ; for PPARγ reporter response relative to vehicle: dosed at 50 μM
# T1 sequence (P37231 238-505 limits assumed): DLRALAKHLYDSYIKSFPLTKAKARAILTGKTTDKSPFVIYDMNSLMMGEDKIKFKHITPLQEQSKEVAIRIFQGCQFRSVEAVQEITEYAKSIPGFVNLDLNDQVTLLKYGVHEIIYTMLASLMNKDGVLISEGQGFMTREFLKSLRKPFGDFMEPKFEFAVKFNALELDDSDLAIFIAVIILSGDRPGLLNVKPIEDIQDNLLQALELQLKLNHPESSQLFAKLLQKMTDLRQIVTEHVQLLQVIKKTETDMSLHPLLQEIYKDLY
# Description: (§1) HEK293 cells were maintained in Dulbecco's modified Eagle's medium supplemented with 10% fetal bovine serum. Cell transfection was performed in media containing 10% charcoal-stripped fetal bovine serum using calcium phosphate in 96-well plates. The total amount of plasmid DNA (150 ng/well) included 50 ng UAS-Iuc reporter, 20 ng β-galactosidase, 15 ng nuclear receptor (GAL4-hPPARα and GAL4-hPPARγ) and pGEM filler plasmid. Ligands were added at 6 to 8 hours post transfection. Cells harvested 14 to 16 hours later were assayed for luciferase and β-galactosidase activity.
# [2] = tested on: 3T3-L1 cells; experiment: Oil Red O staining of 3T3-L1 adipocytes after 11 days of differentiation; format: cell-based; details: 25 μM
# Description: (§2) 3T3-L1 cells were maintained in Dulbecco's modified Eagle's medium supplemented with 10% fetal calf serum. Adipocyte differentiation was induced in two-days postconfluent cells by treating the cells with 100 μg/ml isobutylmethylxanthine, 1 μM dexamethasone, and 5 μg/ml insulin with 10% FBS in DMEM (Day 0). Rosiglitazone and LDT ligands were added at the start of differentiation. Two days later, cells were switched to the medium containing 5 μg/ml insulin with 10% FBS. After an additional 72 hrs, cells were switched to maintenance media containing 10% FBS in DMEM. Thereafter, the media was changed every 2 days. Cells were harvested on day 11 for RNA expression and Oil Red O was used to estimate lipid accumulation.
# Following 11 days of differentiation, cells were washed with PBS twice and fixed in 10% neutral buffered formalin (Sigma) for 1 h at room temperature, followed by two ddH2O and two washes with 60% isopropanol. Cells were then stained with 0.6% (w/v) Oil Red O solution (60% isopropanol, 40% water) for 10 min at room temperature, followed by five washes with ddH2O to remove unbound dye and images were taken with Leica M205 FA microscope.
# [3] = tested on: PPARγ target genes in 3T3-L1 pre-adipocytes; experiment: 3T3-L1 differentiation assay, expression of PPARγ target genes (QPCR); format: cell-based; details: 25 μM, day 11
# Description: as §2
# (§3) Total RNA was extracted from cells using RNA STAT-60 (Tel-Test Inc.), followed by DNase I treatment (RNase-free; Roche), and reverse transcribed into cDNA with random hexamers using the High Capacity Reverse Transcription System (ABI; Applied Biosystems). Real-time quantitative PCR (QPCR) analysis was performed on an ABI 7900 in 384-well plates using 2×SYBR Green PCR Master Mix (ABI). Relative mRNA levels were calculated using the comparative Ct method normalized to cyclophilin mRNA.
# [4] = biological target: T2, GAL4-hPPARα (Homo sapiens, UniProt Q07869); experiment: GAL4-hPPARα-UAS-luciferase reporter assay in transiently transfected HEK293 cells; format: cell-based; details: for EC50 / PPARα agonist profile compared to the full agonist GW7647: dose-response, HEK293 cells; for EC50: read-out: EC50 for PPARα; for PPARα reporter response relative to vehicle: dosed at 50 μM
# T2 sequence (Q07869 200-468 limits assumed): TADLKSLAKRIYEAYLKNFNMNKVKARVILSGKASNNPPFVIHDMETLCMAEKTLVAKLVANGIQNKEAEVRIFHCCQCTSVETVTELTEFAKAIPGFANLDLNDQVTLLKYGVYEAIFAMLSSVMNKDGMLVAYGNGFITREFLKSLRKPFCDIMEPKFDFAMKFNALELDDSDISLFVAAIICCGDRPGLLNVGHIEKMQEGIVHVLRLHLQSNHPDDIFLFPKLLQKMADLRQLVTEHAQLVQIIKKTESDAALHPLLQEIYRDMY
# Description: as §1
# [5] = tested on: PPARα target genes in primary mouse hepatocytes; experiment: Primary hepatocyte assay, expression of PPARα target genes (QPCR); format: cell-based; details: 50 μM, 24 hrs
# Description: Mouse primary hepatocytes were isolated by collagenase perfusion as previously described (Patel et al. 2011). Cells were plated onto type I collagen-coated plates at 0.5×10^6 cells per well for 2 hours in attachment media (William's E Media, 10% charcoal stripped FBS, 1× penicillin/streptomycin, and 10 nM insulin), and then switched to overnight media (M199 Media, 5% charcoal stripped FBS, 1× penicillin/streptomycin, and 1 nM insulin). Ligand treatments were carried out on the following day in M199 media without FBS. Cells were harvested 24 hrs later for RNA extraction.
# as §3
# [6] = women on drug; cited from earlier work
compound,measurement,setting,value
CCCCCCCCCCCCCCCc1cccc(O)c1C(=O)O [LDT11],PPARγ agonist profile compared to rosiglitazone control,[1],full agonist profile
same,EC50,[1],12 µM
same,adipocyte differentiation by Oil red O staining,[2],less adipogenic compared to Rosi
same,GLUT4 expression,[3],augmented
same,adiponectin expression,[3],significantly increased
same,EC50,[4],9 µM
CCCCCCCCCCCCCCCc1cccc(OC(C)=O)c1C(=O)O [LDT13],PPARγ agonist profile compared to rosiglitazone control,[1],partial PPARγ agonists
same,EC50,[1],12 µM
same,GLUT4 expression,[3],augmented
same,EC50,[4],7 µM
CCCCCCCCCCCCCCCc1cccc(OCC(=O)OCC)c1 [LDT15],PPARγ agonist profile compared to rosiglitazone control,[1],partial PPARγ agonists
same,EC50,[1],42 µM
same,adipocyte differentiation by Oil red O staining,[2],less adipogenic compared to Rosi
same,GLUT4 expression,[3],augmented
same,UCP2 expression,[3],upregulated
same,adiponectin expression,[3],induced to a similar degree as Rosi
same,EC50,[4],3.5 µM
same,CD36 expression (hepatocytes),[5],significantly increased
same,FABP1 expression,[5],significantly increased
same,Fgf21 expression,[5],upregulation
same,PDK4 expression,[5],upregulated
CCCCCCCCCCCCCCCc1cccc(OCC(=O)O)c1 [LDT16],PPARγ agonist profile compared to rosiglitazone control,[1],full agonist profile
same,EC50,[1],3.6 µM
same,EC50,[4],0.9 µM
CCCCCCCCCCCCCCCc1cccc(OC)c1C(=O)O [LDT30],UCP2 expression,[3],upregulated
same,EC50,[4],32 µM
"CCOC(=O)COc1cccc(CCCCCCCCO)c1 [LDT296, Ethyl 2-(3-(8-hydroxyoctyl)phenoxy)acetate]",PPARγ agonist profile compared to rosiglitazone control,[1],"less potent, full agonist profile"
same,PPARα agonist profile compared to the full agonist GW7647,[4],less potent partial PPARα agonists
"CCOC(=O)COc1cccc(CCCCCCCC(=O)O)c1 [LDT298, 8-(3-(2-Ethoxy-2-oxoethoxy)phenyl)octanoic acid]",increase in reporter activity in the PPARγ activation assay,"[1]; FIG. 5B, dose not given",comparable luciferase activation
same,increase in activity as compared to Veh in the PPARα activation assay,"[4]; FIG. 5A, dose not given",comparable luciferase activation
same,PPARα agonist profile compared to the full agonist GW7647,[4],less potent partial PPARα agonists
same,EC50,[4],1.3 µM
CCCCCCCCCCCCCCCc1cccc(OC(C)(C)C(=O)OCC)c1 [LDT408],PPARγ agonist profile compared to rosiglitazone control,[1],partial PPARγ agonists
same,adipocyte differentiation by Oil red O staining,[2],less adipogenic compared to Rosi
same,GLUT4 expression,[3],augmented
same,UCP2 expression,[3],upregulated
same,adiponectin expression,[3],significantly increased
same,CD36 expression (hepatocytes),[5],significantly increased
same,FABP1 expression,[5],significantly increased
same,PDK4 expression,[5],upregulated
CCCCCCCCCCCCCCCc1cccc(OC(C)(C)C(=O)O)c1 [LDT409],adipocyte differentiation by Oil red O staining,[2],comparable to Rosi
same,GLUT4 expression,[3],augmented
same,UCP2 expression,[3],upregulated
same,adiponectin expression,[3],induced to a similar degree as Rosi
same,EC50,[4],0.2 µM
"CC(C)(Oc1cccc(CCCCCCCCO)c1)C(=O)O [LDT477, 2-(3-(8-hydroxyoctyl)phenoxy)-2-methylpropanoic acid]",PPARγ agonist profile compared to rosiglitazone control,[1],full agonist profile
same,EC50,[1],14 µM
same,PPARγ reporter response relative to vehicle,[1],most active
same,adipocyte differentiation by Oil red O staining,[2],able to induce adipocyte differentiation
same,GLUT4 expression,[3],upregulated
same,PPARα agonist profile compared to the full agonist GW7647,[4],less potent partial PPARα agonists
same,EC50,[4],20 µM
same,PPARα reporter response relative to vehicle,[4],most active
"CCOC(=O)C(C)(C)Oc1cccc(CCCCCCCC(=O)O)c1 [LDT478, 8-(3-((1-ethoxy-2-methyl-1-oxopropan-2-yl)oxy)phenil)octanoic acid]",PPARγ agonist profile compared to rosiglitazone control,[1],full agonist profile
same,EC50,[1],14 µM
same,PPARα agonist profile compared to the full agonist GW7647,[4],less potent partial PPARα agonists
same,EC50,[4],37 µM
"CCOC(=O)CCCCCCCc1cccc(OCC(=O)OCC)c1 [LDT480, Ethyl 8-(3-(2-ethoxy-2-oxoethoxy)phenyl)octanoate]",PPARγ agonist profile compared to rosiglitazone control,[1],full agonist profile
same,EC50,[1],21 µM
same,PPARγ reporter response relative to vehicle,[1],most active
same,PPARα agonist profile compared to the full agonist GW7647,[4],less potent partial PPARα agonists
same,EC50,[4],3.9 µM
same,PPARα reporter response relative to vehicle,[4],most active
"CCOC(=O)CCCCCCCc1cccc(OC(C)(C)C(=O)OCC)c1 [LDT481, Ethyl 8-(3-((1-ethoxy-2-methyl-1-oxopropan-2-yl)oxy)phenyl)octanoate]",adipocyte differentiation by Oil red O staining,[2],able to induce adipocyte differentiation
same,melting point,,39 to 42 °C
same,GLUT4 expression,[3],upregulated
CCc1ccc(CCOc2ccc(CC3SC(=O)NC3=O)cc2)nc1 (centres unmarked) [pioglitazone],rate of distal bone fractures,[6],two-fold increased rate
CN(CCOc1ccc(CC2SC(=O)NC2=O)cc1)c1ccccn1 (centres unmarked) [rosiglitazone],rate of distal bone fractures,[6],two-fold increased rate

# Source: patent publication US20170121268A1, “PPAR MODULATORS” (THE GOVERNING COUNCIL OF THE UNIVERSITY OF TORONTO, priority 2014, published 2017)
